Assay [1] has as its target T1, human MET (hMET-His) (Homo sapiens, UniProt P08581).
T1 construct: His; purchased ACROBiosystems Inc. MET-H5227
The assay can be described thus: SPR binding affinity of anti-MET antibodies to hMET-His. The source says:
(§1) In another similar experiment, the binding affinity of anti-MET antibodies M-6D12, M-6E6, M-7D3, M-819, M-8E2 and M-8H10 to hMET-His, fasMET-His or dMET-His (His-tagged dog MET, Sino, Cat #:70008-D08H) was verified. Telisotuzumab analog was used as a positive control.
(Surface plasmon resonance follows binding to a sensor surface in real time, without labels.)

For another assay, the system named is SNU-5 cells. Description: Internalization (endocytosis) in SNU-5 cells, pHAb secondary antibody, flow cytometry. Type of assay: cell-based, human. Conditions: 2.5 μg/ml, 1 hour. Here is the method:
Anti-EGFR antibodies (2.5 μg/ml) and pHAb-Goat Anti-Human IgG secondary antibody (Promega (Beijing) Biotech Co., Ltd., Cat #: G9845) were added to SNU-5 cells (ATCC, Reference No.: CRL-5973). After incubating at 37° C. and 5% CO2 for 1 hour, the cells were centrifuged and washed with FACS buffer. The mean fluorescence intensity (MFI) values were measured using a flow cytometer, and the endocytosis rates of the anti-EGFR antibodies were calculated.
Anti-MET antibodies ([…]) and pHAb-GoatAnti-Human IgG Antibody (Promega (Beijing) Biotech Co., Ltd., Cat #: G9845) were added to SUN-5 cells. After incubating for 1 hour, the cells were centrifuged and washed with FACS buffer. The MFI values were measured using a flow cytometer, and the endocytosis rates of the anti-MET antibodies were calculated.
The secondary antibody used in the experiment was: pHAb-AffiniPure Fab Fragment Goat Anti-Human IgG (Jackson Immuno Research, Cat #: 109-007-008).
In general terms: In flow cytometry, cells or beads pass a laser one at a time.

In assay [2] the target is T1, human MET (hMET-His). Description: SPR binding activity of anti-EGFR/MET bispecific antibodies to hMET-His. The conditions noted are these: Table 15. The source says:
(§2) Dissociation was monitored for 400 seconds.

A further assay has as its target human EGFR (hEGFR-His) (Homo sapiens, UniProt P00533). Description: SPR binding activity of anti-EGFR/MET bispecific antibodies to hEGFR-His. Conditions: Table 15.
A further assay deals with NCI-H292 cells. The assay can be described thus: Internalization of antibodies targeting EGFR and/or MET in NCI-H292 cells. Conditions: NCI-H292, 1 hour. The format is cell-based, human. Here is the method:
(§3) Anti-EGFR antibodies, anti-MET antibodies, or anti-EGFR/MET bispecific antibodies, together with the pHAb-Goat anti-human IgG secondary antibody were added to NCI-H1975 cells (ATCC, Reference No.: CRL-5908), HCC827 cells (ATCC, Reference No.: CRL-2868) and NCI-H292 (ATCC, Reference No.: CRL-1848) cells, respectively, and incubated for 1 hour. The cells were centrifuged and washed with FACS buffer. MFI was measured using a flow cytometer. Endocytosis rates of antibodies were calculated. For isotype control (ISO), an antibody targeting an irrelevant target protein was used.

For another assay, the system named is HCC827 cells. Description: Internalization of antibodies targeting EGFR and/or MET in HCC827 cells. The format is cell-based, human. Conditions: HCC827, 1 hour. On the procedure:
as §3

The target of another assay is T2, dog MET (dMET-His) (Canis lupus familiaris, UniProt Q75ZY9).
T2 construct: His; purchased Sino 70008-D08H
The assay can be described thus: SPR binding affinity of anti-MET antibodies to dMET-His.
Text: as §1

The target of assay [3] is monkey EGFR (fasEGFR-His). Description: SPR binding activity of anti-EGFR/MET bispecific antibodies to fasEGFR-His. The conditions noted are these: Table 15.
Text: as §2

The test system of assay [4] is monkey MET (fasMET-His). The assay can be described thus: SPR binding activity of anti-EGFR/MET bispecific antibodies to fasMET-His. The conditions noted are these: Table 15.
Text: as §2

Assay [5] has as its system monkey MET (fasMET-His). Description: SPR binding affinity of anti-MET antibodies to fasMET-His.
Text: as §1

In general, koff refers to a measure of how fast the partners let go of each other. In general, kon refers to a measure of how fast the partners come together.

Sequence of monkey MET (fasMET-His) (as listed by the source): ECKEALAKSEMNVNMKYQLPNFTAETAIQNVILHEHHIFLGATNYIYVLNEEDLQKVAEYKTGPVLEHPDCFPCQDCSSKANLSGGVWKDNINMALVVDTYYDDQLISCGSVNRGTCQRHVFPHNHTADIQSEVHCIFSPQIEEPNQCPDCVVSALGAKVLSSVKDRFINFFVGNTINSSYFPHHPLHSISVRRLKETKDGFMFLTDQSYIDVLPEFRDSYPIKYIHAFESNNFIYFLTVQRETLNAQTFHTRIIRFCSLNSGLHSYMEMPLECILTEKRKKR
Sequence of monkey MET (fasMET-His) (as listed by the source): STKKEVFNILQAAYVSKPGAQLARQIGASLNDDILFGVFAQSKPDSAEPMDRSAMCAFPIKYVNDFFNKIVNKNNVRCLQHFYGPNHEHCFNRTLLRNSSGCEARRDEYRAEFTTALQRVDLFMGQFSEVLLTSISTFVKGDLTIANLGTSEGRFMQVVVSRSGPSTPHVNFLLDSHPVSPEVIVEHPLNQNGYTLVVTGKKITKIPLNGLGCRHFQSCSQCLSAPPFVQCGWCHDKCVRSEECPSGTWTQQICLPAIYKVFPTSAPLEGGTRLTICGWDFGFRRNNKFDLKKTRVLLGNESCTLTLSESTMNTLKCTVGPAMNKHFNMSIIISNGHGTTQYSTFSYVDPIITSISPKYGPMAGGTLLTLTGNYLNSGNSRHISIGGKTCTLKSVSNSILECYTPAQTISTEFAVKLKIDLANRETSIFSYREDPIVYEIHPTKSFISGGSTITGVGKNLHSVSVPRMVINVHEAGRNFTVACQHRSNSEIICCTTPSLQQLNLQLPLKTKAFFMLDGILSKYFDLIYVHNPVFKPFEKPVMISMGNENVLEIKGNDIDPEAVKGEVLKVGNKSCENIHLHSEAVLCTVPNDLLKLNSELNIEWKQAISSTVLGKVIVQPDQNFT
T1 sequence (P08581 25-932 limits assumed): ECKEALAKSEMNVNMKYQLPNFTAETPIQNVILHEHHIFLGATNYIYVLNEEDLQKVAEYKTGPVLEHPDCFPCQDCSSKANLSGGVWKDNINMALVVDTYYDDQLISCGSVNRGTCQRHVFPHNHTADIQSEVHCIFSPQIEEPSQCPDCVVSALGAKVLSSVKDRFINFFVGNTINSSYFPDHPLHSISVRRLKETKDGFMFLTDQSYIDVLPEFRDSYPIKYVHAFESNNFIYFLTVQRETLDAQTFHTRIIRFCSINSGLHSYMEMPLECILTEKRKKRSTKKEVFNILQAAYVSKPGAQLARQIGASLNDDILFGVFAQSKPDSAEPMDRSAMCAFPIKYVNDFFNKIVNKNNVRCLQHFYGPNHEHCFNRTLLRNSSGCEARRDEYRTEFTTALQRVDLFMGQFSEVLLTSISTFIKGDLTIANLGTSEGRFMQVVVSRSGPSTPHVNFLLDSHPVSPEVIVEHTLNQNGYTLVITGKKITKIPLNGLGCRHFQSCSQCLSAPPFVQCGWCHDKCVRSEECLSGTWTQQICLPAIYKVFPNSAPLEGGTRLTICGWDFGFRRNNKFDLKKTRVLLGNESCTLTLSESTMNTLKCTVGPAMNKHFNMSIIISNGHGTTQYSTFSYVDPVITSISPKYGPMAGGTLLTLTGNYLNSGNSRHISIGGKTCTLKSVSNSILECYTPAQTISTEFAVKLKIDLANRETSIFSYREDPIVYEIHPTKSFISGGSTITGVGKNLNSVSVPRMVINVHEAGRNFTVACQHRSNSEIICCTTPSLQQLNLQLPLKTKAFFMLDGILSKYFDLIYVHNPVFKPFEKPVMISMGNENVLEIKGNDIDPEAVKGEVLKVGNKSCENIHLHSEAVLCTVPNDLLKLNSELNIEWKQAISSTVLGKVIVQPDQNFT
T2 sequence (Q75ZY9 25-933 limits assumed): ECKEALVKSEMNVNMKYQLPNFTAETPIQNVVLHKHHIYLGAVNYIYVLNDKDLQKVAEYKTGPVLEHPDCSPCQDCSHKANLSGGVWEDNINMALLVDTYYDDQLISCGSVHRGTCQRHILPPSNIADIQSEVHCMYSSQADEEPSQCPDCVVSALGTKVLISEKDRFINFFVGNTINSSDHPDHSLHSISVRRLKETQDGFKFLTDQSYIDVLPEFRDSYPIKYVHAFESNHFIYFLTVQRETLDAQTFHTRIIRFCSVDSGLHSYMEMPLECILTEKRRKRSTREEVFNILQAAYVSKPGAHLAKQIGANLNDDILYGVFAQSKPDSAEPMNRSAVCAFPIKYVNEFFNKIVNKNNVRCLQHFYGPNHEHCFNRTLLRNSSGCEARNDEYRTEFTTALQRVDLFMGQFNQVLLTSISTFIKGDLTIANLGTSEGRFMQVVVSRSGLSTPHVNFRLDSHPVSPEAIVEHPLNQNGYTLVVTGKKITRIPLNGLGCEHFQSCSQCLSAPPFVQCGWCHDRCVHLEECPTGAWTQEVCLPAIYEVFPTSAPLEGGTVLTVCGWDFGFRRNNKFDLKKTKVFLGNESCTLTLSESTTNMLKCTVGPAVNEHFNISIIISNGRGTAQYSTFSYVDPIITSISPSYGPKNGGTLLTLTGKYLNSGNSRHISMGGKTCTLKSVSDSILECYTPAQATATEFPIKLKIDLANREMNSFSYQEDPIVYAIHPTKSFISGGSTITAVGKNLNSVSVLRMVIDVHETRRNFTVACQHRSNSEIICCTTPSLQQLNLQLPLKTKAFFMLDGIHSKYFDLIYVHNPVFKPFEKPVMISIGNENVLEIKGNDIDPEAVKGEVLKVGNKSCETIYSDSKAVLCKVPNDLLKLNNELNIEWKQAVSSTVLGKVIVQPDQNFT

For “Telisotuzumab analog: analog of Telisotuzumab, humanized IgG1 monoclonal antibody targeting MET; SEQ ID NO: 75 and 76 [reference compound]”, in the assay with human MET (hMET-His) [1], the “binding to human MET” value is reported as “showed binding affinity”. Moreover, the MFI with SNU-5 cells is on record as 21700; in the assay with NCI-H292 cells, 6969; in the assay with HCC827 cells it was 10344. In addition, the “Percentage of Positive (endocytosis)” value in the assay on SNU-5 cells was found to be 36.9%. The koff came to 0.0001 s⁻¹ in the assay with human MET (hMET-His) [2] and 9.41e-05 s⁻¹ with monkey MET (fasMET-His) [4]. Also, the kon is 103000 M⁻¹ s⁻¹ with human MET (hMET-His) [2] and 62600 M⁻¹ s⁻¹ in the assay on monkey MET (fasMET-His) [4]. In addition, the KD result (with human EGFR (hEGFR-His); in [3]) was “No binding” throughout. The “Positive Population” value was 2.32% in the assay with NCI-H292 cells and 0.63% with HCC827 cells. Further, in the assay with dog MET (dMET-His), the “binding to dog MET” value is reported as “no binding affinity”. Further, the “binding to monkey MET” value in the assay on monkey MET (fasMET-His) [5] is listed as “showed binding affinity”.

The record behind these values is patent publication US20250382373A1, “ANTI-EGFR/MET ANTIBODIES AND USES THEREOF” (Biocytogen Pharmaceuticals (Beijing) Co., Ltd., priority 2022, published 2025).
